From patent publication US12534439B2, “Xanthohumol derivatives and methods for making and using” (Oregon State University, priority 2021, dated 2026) come the findings set out here.

The structures appear in SMILES notation.

The subject of this experiment is LPS-activated RAW 264.7 cells. The experiment can be described thus: Nitric oxide (NO) assay, Griess reagent. It is filed as cell-based. The conditions noted are these: LPS 1 μg/mL, 24 hours. As for the experimental part: Nitric Oxide (NO) Assay. NO secreted by LPS-activated RAW 264.7 cells into the culture medium was determined as nitrite by the Griess reagent. RAW 264.7 1 cells obtained from the American Type Culture Collection (Manassas, VA, USA) were cultured in DMEM supplemented with 2 mM glutamine, antibiotics (100 U/mL penicillin and 100 μg/mL streptomycin), and 10% heat-inactivated fetal bovine serum. The cells were initially grown in 75 cm^2 culture flasks at 37° C. in a humidified incubator with 5% CO2. After reaching 80% confluency, the cells were split by seeding them on 96-well plates (0.2 mL/well) at a density of 1.5×10^5 cells/mL. After a 24-hour incubation at 37° C., the cells were treated with LPS (1 μg/mL) with or without test compounds in various concentrations. Vehicle control cells were treated with dimethyl sulfoxide alone at a final concentration of 0.1%. Culture media from control and treated cells were collected after 24 hours of incubation and were frozen at −80° C. before analysis. For the determination of NO (as […]), […], aliquots of the thawed culture media were mixed with an equal volume of Griess reagent on a 96-well plate. […] The samples were incubated for 10 minutes at room temperature and then the absorbance was read at 550 nm using a SpectraMax 190 (Molecular Devices, Sunnyvale, CA) plate reader.
Background: Nitrite, measured by Griess reagent, commonly stands in for NO production.

`COc1cc(O)c(CC=C(C)C)c(O)c1-c1cc(-c2ccc(O)cc2)on1` [isoxazole derivative, 4-(5-(4-hydroxyphenyl)isoxazol-3-yl)-5-methoxy-2-(3-methylbut-2-en-1-yl)benzene-1,3-diol]: the “Concentration from which anti-inflammatory activity (decreased NO production) was displayed” value is approximately 10 µM.
